Experimental data taken from patent publication US20030228253A1, “Radiolabelled thioplatin, compositions thereof and methods of cancer treatment” (priority 2002, published 2003).
Entries after “also recorded” stand apart in the source; their conditions may differ.

What was measured:
human squamous carcinoma = settings: nude mice bearing a human squamous carcinoma; cited from earlier work
DNA of tumor cells [1] = settings: background statement; cited from earlier work
DNA of tumor cells [2] = assay: DNA binding of platinum compounds; settings: for DNA binding: pH 6.8 (solid tumor pH norm)
From the text: ^195mPlatinum is cytotoxic by its release of “auger” electron at 33/disintegrations and with a half-life of over 4 days. In order to amplify the cytotoxicity of the tumor cells, the final drug radioactive thioplatin must be located on the DNA of tumor cells. […] Radioactive thioplatin can be quantitated in the clinic by nuclear SPECT scanning of the tumor and normal tissues for low-energy photons (65-129 kev) emitted by radioactive platinum.

[3] = system: human lung and colon cancer; assay: Tumor cytotoxicity in human tumor xenografts in nude mice; type: in vivo
[4] = background statement; cited from earlier work
[5] = Normal tissue toxicity in experimental animals (body weight, white blood cells, BUN, histopathology/biopsy of kidney and intestine); type: in vivo
Experimental: Thioplatin administered to experimental animals was assayed for the effects of the drug on body weight, white blood cells, BUN and histophathology of kidneys and small intestines.

Compound | antitumor effect (tumor growth delay, log of tumor growth, area under the curve) (human squamous carcinoma) | binding of DNA (DNA of tumor cells [1]) | DNA binding (DNA of tumor cells [2]) | tumor cytotoxicity ([3]; human tumor xenografts in nude mice, human lung and colon cancer) | pH dependence of cytotoxicity ([3]; tumor pH 6.8 versus normal pH 7.2 to 7.4) | peripheral toxicity by direct biopsy of the kidney and intestinal tract [4] | DNA binding relative to cisplatin (DNA of tumor cells [2]; background statement, compared to cisplatin) | effect on BUN ([5]; experimental animals) | effect on body weight ([5]; experimental animals) | effect on white blood cells ([5]; experimental animals) | histopathology of kidneys and small intestines ([5]; experimental animals) | normal tissue toxicity compared to cisplatin ([5]; human tumor xenografts in nude mice, compared to the standard cisplatin)
N.N.[Cl][191Pt][Cl] [^191cisplatin] | cytotoxic to the tumor | – | – | – | – | – | – | – | – | – | – | –
N.N.[Cl][Pt][Cl] [cisplatin] | – | 14.3 nanograms/milligrams | 14.6 ng/mg | – | – | – | – | – | – | – | – | –
thioplatin | – | – | 13,870 ng/mg | cytotoxic to human lung and colon cancer; also recorded: significant tumor cytotoxicity | most effective at an acidic pH | lack of normal tissue toxicity | one-thousand | negligible | negligible | negligible | negligible | reduced normal tissue toxicity
